These results are taken from paper PMC9549944, “In vitro and in silico assessment of new beta amino ketones with antiplasmodial activity” (Revista da Sociedade Brasileira de Medicina Tropical, 2022).

For the test, the system named is P. falciparum strain W2 (chloroquine-resistant). Put plainly: In vitro antiplasmodial activity, SYBR Green-based assay. Format: cell-based. The note with it: for SI (selectivity index): ratio LD50 (WI-26VA4) / IC50 (P. falciparum W2). The procedure: Ring-stage parasites were equally distributed in 96-well microculture plates. Serial dilutions of the compounds were performed ranging from 0.01 to 100 μg/mL. […] A fluorometer (Fluoroskan Ascent, Thermo Laboratories) with excitation at 485 nm and emission at […] was used to determine the viability of the parasites. All experiments were performed in triplicates.
Selectivity index (SI) is the ratio between the values of LD50 and IC50 […] of each compound tested.
IC50 and LD50 were determined using the equation of the curve obtained by plotting parasitemia reduction (%) or cellular death (%) vs. the concentration of the compound (log scale) using the GraphPad Prism software (version 5.0 for Windows, San Diego, California, USA). Due to the non-normality of the data distribution, the comparison of IC50 and LD50 between morpholine and piperidine was analyzed using the nonparametric Mann-Whitney U test. Statistical significance was defined at 5% (p<0.05).

The mark [1] stands for this setting: Plasmodium falciparum, W2, read-out: IC50 ± SD (drug concentration that reduced parasite viability in 50%), P. falciparum W2 chloroquine-resistant, SYBR, mean and SD of triplicate experiments.
[2] abbreviates: read-out: IC50 ± SD (drug concentration that reduced parasite viability in 50%), P. falciparum W2 chloroquine-resistant, SYBR, mean and SD of triplicate experiments.

Read-outs that look alike come from different tables or passages of the source.

Take `CC(CN1CCOCC1)C(=O)c1ccccc1` (stereo not drawn) [Compound 3, 2-methyl-3-(morpholin-4-yl)-1-phenylpropan-1-one]: the “SI (selectivity index)” value is greater than 3.07. Under setting [1], the IC50 was determined as 32530 ± 20 nM.
For the compound `O=C(CCN1CCCCC1)c1ccccc1` [Compound 2, 1-phenyl-3-(piperidin-1-yl)propan-1-one], the “SI (selectivity index)” value was determined as 9.46. Besides, under setting [1], the IC50 was less than 3590 nM. For the same compound, under setting [2], the IC50 was determined as 3590 ± 80 nM.
Consider `CC(CN1CCCCC1)C(=O)c1ccccc1` (stereo not drawn) [Compound 4, 2-methyl-1-phenyl-3-(piperidein-1-yl)propan-1-one], for which the IC50 is, setting by setting: under setting [1], greater than 1000 nM; under setting [2], 780 ± 90 nM.
Turning to `CCN(CC)CCCC(C)Nc1ccnc2cc(Cl)ccc12` (stereo not drawn) [Chloroquine (CQ), Chloroquine, reference compound], where the note is “Plasmodium falciparum, W2, read-out: IC50 ± SD (drug concentration that reduced parasite viability in 50%)”, the IC50 is 920 ± 10 nM.
As for `CCCCCCC(CN1CCCCC1)C(C)=O` (stereo not drawn) [Compound 8, 3[(piperdin-1-yl)methyl]nonan-2-one], the “SI (selectivity index)” value came to 0.81. The IC50 under setting [1] was found to be 48000 ± 18500 nM.
Consider `O=C(CCN1CCOCC1)c1ccccc1` [Compound 1, 3-(morpholin-4-yl)-1-phenylpropan-1-one], for which the IC50 is, setting by setting: under setting [1], less than 980 nM; under setting [2], 980 ± 10 nM.
